Laboratory results reported in PMC9516332 (Frontiers in Oncology, 2022).
Read-outs that look alike come from different tables or passages of the source.

Tests used:
Assay in all cases: Kinase panel profiling at 1 µmol/L (MSA or IMAP), percentage inhibition
Type in all cases: biochemical
[1] = biological target: panel of 255 wild-type kinases (Homo sapiens, UniProt O43683); conditions: read-out: %-inhibition BUB1/BUB3
[2] = biological target: panel of 255 wild-type kinases (Homo sapiens, UniProt P22694); conditions: read-out: %-inhibition at 1 µmol/L, PKACβ
[3] = biological target: panel of 255 wild-type kinases (Homo sapiens, UniProt P27361); conditions: read-out: %-inhibition at 1 µmol/L, Erk1
[4] = biological target: panel of 255 wild-type kinases (Homo sapiens, UniProt Q04759); conditions: read-out: %-inhibition at 1 µmol/L, PKCθ
[5] = biological target: T1, panel of 255 wild-type kinases (Homo sapiens, UniProt Q13976); conditions: read-out: %-inhibition at 1 µmol/L, PGK
T1 sequence (Q13976 1-671): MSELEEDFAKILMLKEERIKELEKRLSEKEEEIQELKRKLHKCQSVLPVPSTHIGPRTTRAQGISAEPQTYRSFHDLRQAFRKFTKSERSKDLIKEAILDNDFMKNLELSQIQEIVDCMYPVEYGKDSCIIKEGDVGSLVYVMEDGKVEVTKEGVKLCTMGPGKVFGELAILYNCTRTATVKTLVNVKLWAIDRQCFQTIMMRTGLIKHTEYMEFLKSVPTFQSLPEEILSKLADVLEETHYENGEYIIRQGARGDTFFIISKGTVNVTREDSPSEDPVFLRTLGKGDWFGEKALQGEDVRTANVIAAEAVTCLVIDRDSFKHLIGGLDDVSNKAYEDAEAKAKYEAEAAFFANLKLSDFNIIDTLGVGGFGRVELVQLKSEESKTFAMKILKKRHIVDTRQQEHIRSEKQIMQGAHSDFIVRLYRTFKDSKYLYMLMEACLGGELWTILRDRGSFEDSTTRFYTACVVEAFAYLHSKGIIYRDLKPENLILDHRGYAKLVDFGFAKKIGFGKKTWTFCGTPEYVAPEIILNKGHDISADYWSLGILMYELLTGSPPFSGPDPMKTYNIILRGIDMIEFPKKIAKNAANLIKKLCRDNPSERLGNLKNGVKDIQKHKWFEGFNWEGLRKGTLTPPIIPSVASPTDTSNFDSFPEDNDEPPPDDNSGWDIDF

[6] = biological target: T2, panel of 255 wild-type kinases (Homo sapiens, UniProt Q14164); conditions: read-out: %-inhibition at 1 µmol/L, IKKε
T2 sequence (Q14164 1-716): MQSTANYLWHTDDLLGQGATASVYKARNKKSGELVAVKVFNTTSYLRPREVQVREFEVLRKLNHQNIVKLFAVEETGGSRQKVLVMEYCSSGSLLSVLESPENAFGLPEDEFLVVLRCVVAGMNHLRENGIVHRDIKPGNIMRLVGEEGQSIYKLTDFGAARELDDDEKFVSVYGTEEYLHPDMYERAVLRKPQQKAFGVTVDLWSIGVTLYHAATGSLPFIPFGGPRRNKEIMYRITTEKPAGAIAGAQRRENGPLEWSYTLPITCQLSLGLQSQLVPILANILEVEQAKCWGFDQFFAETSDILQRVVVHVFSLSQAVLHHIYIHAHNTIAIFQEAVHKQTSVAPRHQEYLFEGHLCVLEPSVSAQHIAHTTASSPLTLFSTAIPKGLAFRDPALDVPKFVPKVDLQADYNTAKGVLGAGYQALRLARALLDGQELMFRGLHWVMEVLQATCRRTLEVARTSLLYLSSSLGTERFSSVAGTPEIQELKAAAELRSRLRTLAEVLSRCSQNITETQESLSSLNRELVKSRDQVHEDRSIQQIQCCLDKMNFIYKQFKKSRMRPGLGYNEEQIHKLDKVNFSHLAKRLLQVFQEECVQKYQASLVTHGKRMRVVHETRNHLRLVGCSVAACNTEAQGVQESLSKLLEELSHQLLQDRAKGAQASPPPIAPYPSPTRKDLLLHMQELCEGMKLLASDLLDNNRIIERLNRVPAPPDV

[7] = biological target: panel of 255 wild-type kinases (Homo sapiens, UniProt Q16512); conditions: read-out: %-inhibition at 1 µmol/L, PKN1
[8] = biological target: panel of 255 wild-type kinases (Homo sapiens, UniProt Q96GD4); conditions: read-out: %-inhibition AurB
[9] = biological target: panel of 255 wild-type kinases (Homo sapiens, UniProt Q9H2G2); conditions: read-out: %-inhibition at 1 µmol/L, SLK
[10] = BUB1/BUB3 kinase assay, 1 µmol/L single concentration
[11] = kinase PKACβ, 1 µmol/L single concentration
[12] = kinase Erk1, 1 µmol/L single concentration
[13] = kinase PKCθ, 1 µmol/L single concentration
[14] = kinase PGK, 1 µmol/L single concentration
[15] = kinase IKKε, 1 µmol/L single concentration
[16] = kinase PKN1, 1 µmol/L single concentration
[17] = AurB kinase assay, 1 µmol/L single concentration
[18] = kinase SLK, 1 µmol/L single concentration

Cc1nc(NC(=O)N2CCC[C@H]2C(N)=O)sc1-c1ccnc(C(C)(C)C(F)(F)F)c1 [alpelisib]
inhibition at 1 µM [1, 10]: -4.62%
inhibition at 1 µM [2, 11]: -20%
inhibition at 1 µM [3, 12]: -0.813%
inhibition at 1 µM [4, 13]: -0.212%
inhibition at 1 µM [5, 14]: -3%
inhibition at 1 µM [6, 15]: -4.31%
inhibition at 1 µM [7, 16]: 8%
inhibition at 1 µM [8, 17]: -4.26%
inhibition at 1 µM [9, 18]: 8%

Cn1cc(-c2cc3c(N4CCN(c5ncc([C@@](C)(N)c6ccc(F)cc6)cn5)CC4)ncnn3c2)cn1 [avapritinib]
inhibition at 1 µM [1, 10]: 4%
inhibition at 1 µM [2, 11]: -19%
inhibition at 1 µM [3, 12]: -1.84%
inhibition at 1 µM [4, 13]: 2.6%
inhibition at 1 µM [5, 14]: -2.58%
inhibition at 1 µM [6, 15]: -0.262%
inhibition at 1 µM [7, 16]: 19%
inhibition at 1 µM [8, 17]: 20%
inhibition at 1 µM [9, 18]: 36%

Cn1cnc2c(F)c(Nc3ccc(Br)cc3F)c(C(=O)NOCCO)cc21 [binimetinib]
inhibition at 1 µM [1, 10]: -3.43%
inhibition at 1 µM [2, 11]: -0.56%
inhibition at 1 µM [3, 12]: -4.32%
inhibition at 1 µM [4, 13]: -2.27%
inhibition at 1 µM [5, 14]: -3%
inhibition at 1 µM [6, 15]: -3%
inhibition at 1 µM [7, 16]: 6%
inhibition at 1 µM [8, 17]: -3.18%
inhibition at 1 µM [9, 18]: 3.27%

CNC(=O)c1ccc(-c2cnc3ncc(Cc4ccc5ncccc5c4)n3n2)cc1F [capmatinib]
inhibition at 1 µM [1]: 1.44%
inhibition at 1 µM [2]: -9%
inhibition at 1 µM [3]: 2.84%
inhibition at 1 µM [4]: -5.31%
inhibition at 1 µM [5]: -4.5%
inhibition at 1 µM [6]: -5.46%
inhibition at 1 µM [7]: 16%
inhibition at 1 µM [8]: 4.24%
inhibition at 1 µM [9]: 7.55%

COc1cc2ncnc(Nc3ccc(F)c(Cl)c3)c2cc1NC(=O)/C=C/CN1CCCCC1 [dacomitinib]
inhibition at 1 µM [1, 10]: 22%
inhibition at 1 µM [2, 11]: 6%
inhibition at 1 µM [3, 12]: 2.66%
inhibition at 1 µM [4, 13]: 1.57%
inhibition at 1 µM [5, 14]: 4%
inhibition at 1 µM [6, 15]: -2.11%
inhibition at 1 µM [7, 16]: 16%
inhibition at 1 µM [8, 17]: 2%
inhibition at 1 µM [9, 18]: 78%

C[C@H](Nc1ncnc2nc[nH]c12)c1cc2cccc(Cl)c2c(=O)n1-c1ccccc1 [duvelisib]
inhibition at 1 µM [1, 10]: -3.41%
inhibition at 1 µM [2, 11]: -16%
inhibition at 1 µM [3, 12]: 2.77%
inhibition at 1 µM [4, 13]: 1.09%
inhibition at 1 µM [5, 14]: 1.63%
inhibition at 1 µM [6, 15]: -0.56%
inhibition at 1 µM [7, 16]: 11%
inhibition at 1 µM [8, 17]: 0.417%
inhibition at 1 µM [9, 18]: 7.44%

COC(=O)N[C@@H](C)CNc1nccc(-c2cn(C(C)C)nc2-c2cc(Cl)cc(NS(C)(=O)=O)c2F)n1 [encorafenib]
inhibition at 1 µM [1, 10]: 6%
inhibition at 1 µM [2, 11]: 9.51%
inhibition at 1 µM [3, 12]: -0.942%
inhibition at 1 µM [4, 13]: 2%
inhibition at 1 µM [5, 14]: -1.28%
inhibition at 1 µM [6, 15]: -3.36%
inhibition at 1 µM [7, 16]: 6%
inhibition at 1 µM [8, 17]: -0.69%
inhibition at 1 µM [9, 18]: 6%

CN1CCN(c2ccc(C(=O)Nc3n[nH]c4ccc(Cc5cc(F)cc(F)c5)cc34)c(NC3CCOCC3)c2)CC1 [entrectinib]
inhibition at 1 µM [1, 10]: -5.38%
inhibition at 1 µM [2, 11]: -21%
inhibition at 1 µM [3, 12]: -0.529%
inhibition at 1 µM [4, 13]: 10%
inhibition at 1 µM [6, 15]: 7%
inhibition at 1 µM [7, 16]: 64%
inhibition at 1 µM [8, 17]: 48%
inhibition at 1 µM [9, 18]: 63%

CCc1nc(C(N)=O)c(Nc2ccc(N3CCC(N4CCN(C)CC4)CC3)c(OC)c2)nc1NC1CCOCC1 [gilteritinib]
inhibition at 1 µM [1, 10]: 54%
inhibition at 1 µM [2, 11]: 22%
inhibition at 1 µM [3, 12]: 1.85%
inhibition at 1 µM [4, 13]: 12%
inhibition at 1 µM [5, 14]: 41%
inhibition at 1 µM [6, 15]: 10%
inhibition at 1 µM [7, 16]: 65%
inhibition at 1 µM [8]: 64%
inhibition at 1 µM [9, 18]: 99%

CCN1CCN(c2ccc(Nc3cc(N(C)C(=O)Nc4c(Cl)c(OC)cc(OC)c4Cl)ncn3)cc2)CC1 [infigratinib]
inhibition at 1 µM [1, 10]: -1.66%
inhibition at 1 µM [2, 11]: -17%
inhibition at 1 µM [3, 12]: -4%
inhibition at 1 µM [4, 13]: -3%
inhibition at 1 µM [5, 14]: -2%
inhibition at 1 µM [6, 15]: -6%
inhibition at 1 µM [7, 16]: 13%
inhibition at 1 µM [8, 17]: -5%
inhibition at 1 µM [9, 18]: 16%

O=C(Nc1cnn2ccc(N3CCC[C@@H]3c3cc(F)ccc3F)nc12)N1CC[C@H](O)C1 [larotrectinib]
inhibition at 1 µM [1, 10]: -6%
inhibition at 1 µM [2, 11]: -14%
inhibition at 1 µM [3, 12]: -14%
inhibition at 1 µM [4, 13]: -2.77%
inhibition at 1 µM [5, 14]: -2.33%
inhibition at 1 µM [6, 15]: 7%
inhibition at 1 µM [7, 16]: 7%
inhibition at 1 µM [8, 17]: -4.57%
inhibition at 1 µM [9, 18]: 5.58%

C[C@H]1Oc2cc(cnc2N)-c2c(nn(C)c2C#N)CN(C)C(=O)c2ccc(F)cc21 [lorlatinib]
inhibition at 1 µM [1, 10]: -5%
inhibition at 1 µM [2, 11]: -18%
inhibition at 1 µM [3, 12]: 3%
inhibition at 1 µM [4, 13]: 3%
inhibition at 1 µM [5, 14]: 0.684%
inhibition at 1 µM [6, 15]: -3.78%
inhibition at 1 µM [7, 16]: 4.68%
inhibition at 1 µM [8, 17]: 5%
inhibition at 1 µM [9, 18]: 90%

CCN1C(=O)N(c2c(F)c(OC)cc(OC)c2F)Cc2cnc3[nH]c(CN4CCOCC4)cc3c21 [pemigatinib]
inhibition at 1 µM [1, 10]: -3.37%
inhibition at 1 µM [2, 11]: -7%
inhibition at 1 µM [3, 12]: -8.52%
inhibition at 1 µM [4, 13]: -2.16%
inhibition at 1 µM [5, 14]: -1.82%
inhibition at 1 µM [6, 15]: 8.49%
inhibition at 1 µM [7, 16]: 10%
inhibition at 1 µM [8, 17]: 2.32%
inhibition at 1 µM [9, 18]: 0.681%

FC(F)(F)c1ccc(CNc2ccc(Cc3c[nH]c4ncc(Cl)cc34)cn2)cn1 [pexidartinib]
inhibition at 1 µM [1, 10]: 5.7%
inhibition at 1 µM [2, 11]: 4%
inhibition at 1 µM [3, 12]: 2.66%
inhibition at 1 µM [4, 13]: 3.27%
inhibition at 1 µM [5, 14]: 14%
inhibition at 1 µM [6, 15]: -1.81%
inhibition at 1 µM [7, 16]: -4.55%
inhibition at 1 µM [8, 17]: 60%
inhibition at 1 µM [9, 18]: 11%

CO[C@]1(C(=O)N[C@@H](C)c2ccc(-n3cc(F)cn3)nc2)CC[C@H](c2nc(C)cc(Nc3cc(C)[nH]n3)n2)CC1 [pralsetinib]
inhibition at 1 µM [1, 10]: -0.908%
inhibition at 1 µM [2, 11]: 20%
inhibition at 1 µM [3, 12]: -3%
inhibition at 1 µM [4, 13]: -0.598%
inhibition at 1 µM [5, 14]: 13%
inhibition at 1 µM [6, 15]: -5%
inhibition at 1 µM [7, 16]: 27%
inhibition at 1 µM [8, 17]: 38%
inhibition at 1 µM [9, 18]: 17%

CCn1c(=O)c(-c2cc(NC(=O)Nc3ccccc3)c(F)cc2Br)cc2cnc(NC)cc21 [ripretinib]
inhibition at 1 µM [1, 10]: 2.76%
inhibition at 1 µM [2, 11]: -3.65%
inhibition at 1 µM [3, 12]: 2.79%
inhibition at 1 µM [4, 13]: -3%
inhibition at 1 µM [5, 14]: -0.449%
inhibition at 1 µM [6, 15]: -5%
inhibition at 1 µM [7, 16]: 10%
inhibition at 1 µM [8, 17]: 5%
inhibition at 1 µM [9, 18]: 18%
